Measured values: patent US8791143B2, “Anthranilic diamide derivatives having cyclic side-chains” (priority 2010, dated 2014)
Like-named read-outs stand apart in the source and are kept apart here.

How the values were obtained:
[1] = test system: larvae of the mustard beetle (Phaedon cochleariae); test: Phaedon test (PHAECO spray treatment); conditions: for pest or weed control at 100 g/ha / pest or weed control at 500 g/ha / inhibition at 20 g/ha: Phaedon cochleariae, 168 h; for pest or weed control at 100 g/ha / pest or weed control at 500 g/ha: read-out: activity in % (beetle larvae killed); for inhibition at 20 g/ha: read-out: % Activity PHAECO
[2] = log P by HPLC on reversed-phase columns (EEC Directive 79/831 Annex V.A8); type: physicochemical; conditions: for log P (second value after the slash): pH 2.7
[3] = test system: green peach aphid (Myzus persicae); test: Myzus test (MYZUPE spray treatment); type: in vivo; conditions: Myzus persicae, 144 h; for pest or weed control at 100 g/ha / pest or weed control at 500 g/ha: read-out: activity in % (aphids killed); for inhibition at 100 g/ha / inhibition at 20 g/ha: 6 d, comparison with prior art
[4] = test system: caterpillars of the armyworm (Spodoptera frugiperda); test: Spodoptera frugiperda test (SPODFR spray treatment); type: in vivo; conditions: for pest or weed control at 100 g/ha / pest or weed control at 500 g/ha: read-out: activity in % (caterpillars killed)
[5] = reversed-phase C18 HPLC column, pH 2.7, HPLC reversed-phase C18, acidic range pH 2.7 (HCOOH), only or first value of the cell, read-out: log P
[6] = application rate 100 g/ha, after 6 days
[7] = Spodoptera frugiperda, 168 h, application rate 100 g/ha, after 7 days
[8] = application rate 100 g/ha, after 7 days
[9] = Spodoptera frugiperda, 168 h, 7 d, comparison with prior art

Compound | pest or weed control at 100 g/ha [1] [%] | chromatographic logP ([2]; pH 2.7, log P) | pest or weed control at 100 g/ha [3] [%] | pest or weed control at 100 g/ha ([4]; Spodoptera frugiperda, 168 h) [%] | other results
Cc1cc(Cl)cc(C(=O)NC2CS(=O)(=O)CC2O)c1NC(=O)c1cc(Cn2nnc(C(F)(F)F)n2)nn1-c1ncccc1Cl (centres unmarked) [Example 35] | 100 | 2.58 | 80 | 100 | 
Cc1cc(C#N)cc(C(=O)NC2=NCCS2)c1NC(=O)c1cc(Cn2nnc(C(F)(F)F)n2)nn1-c1ncccc1Cl [Example 46] | 100 | 3.11 | 100 | 100 | log P (second value after the slash) [2]: 2.75
Cc1cc(I)cc(C(=O)NC2COC2)c1NC(=O)c1cc(Cn2nnc(C(F)(F)F)n2)nn1-c1ncccc1Cl [Example 6] | 100 | 3 | 80 | 100 | 
Cc1cc(Cl)cc(C(=O)NCc2ccc([N+](=O)[O-])cc2)c1NC(=O)c1cc(Cn2nnc(C(F)(F)F)n2)nn1-c1ncccc1Cl [Example 97] | 100 |  |  |  | chromatographic logP [2, 5]: 3.65; pest or weed control at 100 g/ha [3, 6]: 90%; pest or weed control at 100 g/ha [4, 7]: 100%
Cc1cc(C#N)cc(C(=O)NC2CSC2)c1NC(=O)c1cc(Cn2nnc(C(F)(F)F)n2)nn1-c1ncccc1Cl [Example 15] | 100 | 3.06 | 100 | 100 | 
Cc1cc(Cl)cc(C(=O)NC2=NCCS2)c1NC(=O)c1cc(Cn2nnc(C(F)(F)F)n2)nn1-c1ncccc1Cl [Example 45] | 100 | 3.5 | 100 | 100 | log P (second value after the slash) [2]: 3.14
Cc1cc(C#N)cc(C(=O)NC2CCCC2)c1NC(=O)c1cc(Cn2nnc(C(F)(F)F)n2)nn1-c1ccccc1Cl [No. 3 known WO2007/144100, reference compound] |  |  |  |  | inhibition at 100 g/ha [3]: 0%; inhibition at 100 g/ha ([4]; Spodoptera frugiperda, 168 h, 100 g/ha, 7 d, comparison with prior art): 83%
Cc1cc(Cl)cc(C(=O)NCc2ccc(N)cc2)c1NC(=O)c1cc(Cn2nnc(C(F)(F)F)n2)nn1-c1ncccc1Cl [Example 140] | 100 | 2.55 | 100 | 100 | 
Cc1cc(C#N)cc(C(=O)NC2CCSC2=O)c1NC(=O)c1cc(Cn2nnc(C(F)(F)F)n2)nn1-c1ncccc1Cl (centres unmarked) [Example 39] |  | 2.89 |  |  | pest or weed control at 500 g/ha [1]: 100%; log P (second value after the slash) [2]: 2.57; pest or weed control at 500 g/ha [3]: 100%; pest or weed control at 500 g/ha ([4]; Spodoptera frugiperda, 168 h): 100%
Cc1cc(C#N)cc(C(=O)NC2COC2)c1NC(=O)c1cc(Cn2nnc(C(F)(F)F)n2)nn1-c1ncccc1Cl [Example 1] |  | 2.49 | 90 |  | activity in % (beetle larvae killed) [1, 8]: 100%; inhibition at 20 g/ha [3]: 100%; activity in % (caterpillars killed) [4, 8]: 100%
Cc1cc(Cl)cc(C(=O)NCc2ccc(F)cn2)c1NC(=O)c1cc(Cn2nnc(C(F)(F)F)n2)nn1-c1ncccc1Cl [Example 224] | 100 | 3.24 | 90 | 100 | 
Cc1cc(C#N)cc(C(=O)NC2COC2)c1NC(=O)c1cc(Cn2nnc(C(F)(F)F)n2)nn1-c1c(Cl)cccc1Cl [Example 28] | 100 |  |  |  | chromatographic logP [2, 5]: 3.05; pest or weed control at 100 g/ha [3, 6]: 100%; pest or weed control at 100 g/ha [4, 7]: 100%
Cc1cc(C#N)cc(C(=O)NC2CCN(Cc3ccccc3)C2)c1NC(=O)c1cc(Cn2nnc(C(F)(F)C(F)(F)F)n2)nn1-c1ncccc1Cl (centres unmarked) [Example 32] |  |  |  |  | pest or weed control at 500 g/ha [1]: 100%; chromatographic logP [2, 5]: 2.14; pest or weed control at 100 g/ha [3, 6]: 90%; pest or weed control at 500 g/ha ([4]; Spodoptera frugiperda, 168 h, application rate 500 g/ha, after 7 days): 100%
O=C(NCc1ccccc1OC(F)(F)F)c1cc(Br)cc(Cl)c1NC(=O)c1cc(Cn2nnc(C(F)(F)F)n2)nn1-c1ncccc1Cl [Example 193] | 100 |  |  |  | chromatographic logP [2, 5]: 4.3; pest or weed control at 100 g/ha [3, 6]: 90%; pest or weed control at 100 g/ha [4, 7]: 100%
Cc1cc(Cl)cc(C(=O)NC(C)C2CCCO2)c1NC(=O)c1cc(Cn2nnc(C(F)(F)F)n2)nn1-c1ncccc1Cl (centres unmarked) [Example 62] | 100 | 3.45 | 100 | 100 | 
Cc1cc(Cl)cc(C(=O)NC2CCN(C)C2=O)c1NC(=O)c1cc(Cn2nnc(C(F)(F)F)n2)nn1-c1ncccc1Cl (centres unmarked) [Example 50] | 100 | 2.66 | 100 | 100 | log P (second value after the slash) [2]: 2.36
Cc1cc(Cl)cc(C(=O)NC2CCC2)c1NC(=O)c1cc(Cn2nnc(C(F)(F)F)n2)nn1-c1ncccc1Cl [No. 4 known WO2007/144100, reference compound] |  |  |  |  | inhibition at 20 g/ha [1]: 33%; inhibition at 100 g/ha [3]: 0%; inhibition at 20 g/ha [4, 9]: 83%

Compound | pest or weed control at 100 g/ha [1] [%] | chromatographic logP ([2]; pH 2.7, log P) | pest or weed control at 100 g/ha [3] [%] | pest or weed control at 100 g/ha ([4]; Spodoptera frugiperda, 168 h) [%] | other results
O=C(NC1COC1)c1cc(Cl)cc(Cl)c1NC(=O)c1cc(Cn2nnc(C(F)(F)C(F)(F)F)n2)nn1-c1ncccc1Cl [Example 10] | 100 | 3.18 |  | 100 | pest or weed control at 500 g/ha [3]: 100%
Cc1cc(C#N)cc(C(=O)NC2=NCCS2)c1NC(=O)c1cc(Cn2nnc(C(F)(F)C(F)(F)F)n2)nn1-c1ncccc1Cl [Example 48] | 100 | 3.49 | 80 | 100 | log P (second value after the slash) [2]: 3.18
Cc1cc(Cl)cc(C(=O)NCc2ncc(F)cc2F)c1NC(=O)c1cc(Cn2nnc(C(F)(F)F)n2)nn1-c1ncccc1Cl [Example 231] | 100 | 3.5 | 90 | 100 | 
Cc1cc(C#N)cc(C(=O)NCc2ccccc2OC(F)(F)F)c1NC(=O)c1cc(Cn2nnc(C(F)(F)F)n2)nn1-c1ncccc1Cl [Example 153] | 100 |  |  |  | chromatographic logP [2, 5]: 3.89; pest or weed control at 100 g/ha [3, 6]: 90%; pest or weed control at 100 g/ha [4, 7]: 100%
Cc1cc(C#N)cc(C(=O)NC2CCC2)c1NC(=O)c1cc(Cn2nnc(C(F)(F)F)n2)nn1-c1ncccc1Cl [No. 1 known WO2007/144100, reference compound] |  |  |  |  | inhibition at 20 g/ha [3]: 80%
Cc1cc(C#N)cc(C(=O)NC2CCCC2)c1NC(=O)c1cc(Cn2nnc(C(F)(F)F)n2)nn1-c1ncccc1Cl [No. 2 known WO2007/144100, reference compound] |  |  |  |  | inhibition at 100 g/ha [3]: 70%
Cc1cc(Cl)cc(C(=O)NCc2ccc(OC(F)(F)F)cc2)c1NC(=O)c1cc(Cn2nnc(C(F)F)n2)nn1-c1ncccc1Cl [Example 151] | 100 |  |  |  | chromatographic logP [2, 5]: 3.78; pest or weed control at 100 g/ha [3, 6]: 100%; pest or weed control at 100 g/ha [4, 7]: 100%
Cc1cc(Cl)cc(C(=O)NC2COC2)c1NC(=O)c1cc(Cn2nnc(C(F)(F)F)n2)nn1-c1ncccc1Cl [Example 2] | 100 | 2.8 | 100 | 100 | inhibition at 20 g/ha [1]: 100%; inhibition at 100 g/ha [3]: 100%; inhibition at 20 g/ha [4, 9]: 100%
Cc1cc(C)c(NC(=O)c2cc(Cn3nnc(C(F)(F)F)n3)nn2-c2ncccc2Cl)c(C(=O)NC2COC2)c1 [Example 7] | 100 | 2.67 | 90 | 100 | 
Cc1cc(C#N)cc(C(=O)NC2CCSCC2)c1NC(=O)c1cc(Cn2nnc(C(F)(F)F)n2)nn1-c1ccccc1Cl [Example 58] | 100 |  |  |  | chromatographic logP [2, 5]: 3.65; pest or weed control at 100 g/ha [3, 6]: 100%
Cc1cc(F)cc(C(=O)NCc2ccccc2OC(F)(F)F)c1NC(=O)c1cc(Cn2nnc(C(F)(F)F)n2)nn1-c1ncccc1Cl [Example 154] | 100 |  |  |  | chromatographic logP [2, 5]: 3.92; pest or weed control at 100 g/ha [4, 7]: 100%
Cc1cccc(CNC(=O)c2cc(Cl)cc(C)c2NC(=O)c2cc(Cn3nnc(C(F)(F)F)n3)nn2-c2ncccc2Cl)n1 [Example 225] | 100 | 2.24 |  | 100 | 
Cc1cc(Cl)cc(C(=O)Nc2ccc(Cl)cc2)c1NC(=O)c1cc(Cn2nnc(C(F)(F)F)n2)nn1-c1ncccc1Cl [Example 73] | 100 | 4.17 |  | 100 | 
Cc1cc(Cl)cc(C(=O)NCc2cccc(Cl)c2Cl)c1NC(=O)c1cc(Cn2nnc(C(F)(F)F)n2)nn1-c1ncccc1Cl [Example 105] | 100 | 4.37 |  | 100 | 
Cc1cc(I)cc(C(=O)NCc2ccccc2OC(F)F)c1NC(=O)c1cc(Cn2nnc(C(F)(F)C(F)(F)F)n2)nn1-c1ncccc1Cl [Example 157] | 100 |  |  |  | chromatographic logP [2, 5]: 4.45; pest or weed control at 100 g/ha [4, 7]: 100%
Cc1cc(Cl)cc(C(=O)NCc2cccc(Cl)c2)c1NC(=O)c1cc(Cn2nnc(C(F)(F)F)n2)nn1-c1ncccc1Cl [Example 116] | 100 | 4.1 |  | 100 | 
